Source: ChEMBL document CHEMBL1201862, “PubChem BioAssay data set” (2004)
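All cell lines were grown in 96-well plates and treated with compound for 48 hours. Abbreviation: GI50, concentration required for 50% inhibition of growth.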 Calls of active or inactive are those of the source. No stated cut-off is given here; in the data, active = GI50 up to about 1.1 µM and inactive = higher.

What was measured:
Assay in all cases: inhibition of tumour cell growth, NCI panel, 48 h
COLO 205 = test system: COLO 205
HCC 2998 = test system: HCC 2998
U-251 = test system: U-251
M14 = test system: M14
UACC-62 = test system: UACC-62
A498 = test system: A498
SF-295 = test system: SF-295
CCRF-CEM = test system: CCRF-CEM
NCI-H226 = test system: NCI-H226
OVCAR-4 = test system: OVCAR-4
SK-MEL-2 = test system: SK-MEL-2
A549 = test system: A549
RXF 393 = test system: RXF 393
HCT-15 = test system: HCT-15
SN12C = test system: SN12C
SR = test system: SR
NCI-H522 = test system: NCI-H522
HT-29 = test system: HT-29
MDA-MB-231 = test system: MDA-MB-231
LOX IMVI = test system: LOX IMVI

SMILES | GI50 (COLO 205) | GI50 (HCC 2998) | GI50 (U-251) | GI50 (M14) | GI50 (UACC-62) | GI50 (A498) | GI50 (SF-295) | GI50 (CCRF-CEM) | GI50 (NCI-H226) | GI50 (OVCAR-4) | GI50 (SK-MEL-2) | GI50 (A549) | GI50 (RXF 393) | GI50 (HCT-15) [µM] | GI50 (SN12C) | GI50 (SR) | GI50 (NCI-H522) | GI50 (HT-29) | GI50 (MDA-MB-231) | GI50 (LOX IMVI)
CC(C)c1ccccc1NC(=O)C(=O)Cc1nc2ccccc2s1 | > 100 µM (inactive) | > 100 µM (inactive) | > 100 µM (inactive) | > 100 µM (inactive) | > 100 µM (inactive) | > 100 µM (inactive) | > 100 µM (inactive) | > 100 µM (inactive) | > 100 µM (inactive) | > 100 µM (inactive) | > 100 µM (inactive) | > 100 µM (inactive) | > 100 µM (inactive) | > 100 | > 100 µM (inactive) | > 100 µM (inactive) | > 100 µM (inactive) | > 100 µM (inactive) | – | –
COc1cc(OC)cc(-n2c(N)c(-c3nc4ccccc4n3C)c3ccc([N+](=O)[O-])cc3c2=O)c1 | > 100 µM (inactive) | > 100 µM (inactive) | 46.8 µM (inactive) | – | > 100 µM (inactive) | > 100 µM (inactive) | – | – | 70.6 µM (inactive) | 28.2 µM (inactive) | > 100 µM (inactive) | > 100 µM (inactive) | – | > 100 | 94.4 µM (inactive) | – | 55.8 µM (inactive) | > 100 µM (inactive) | 80.5 µM (inactive) | > 100 µM (inactive)
c1ccc2c(c1)cc1n2CC2CN=NC12 (configuration not stated) | – | > 100 µM (inactive) | > 100 µM (inactive) | > 100 µM (inactive) | > 100 µM (inactive) | > 100 µM (inactive) | > 100 µM (inactive) | – | > 100 µM (inactive) | > 100 µM (inactive) | > 100 µM (inactive) | > 100 µM (inactive) | > 100 µM (inactive) | > 100 | > 100 µM (inactive) | > 100 µM (inactive) | > 100 µM (inactive) | > 100 µM (inactive) | – | > 100 µM (inactive)
N#C/N=C(/N)NCN/C(N)=N\C#N | 64.6 µM (inactive) | > 100 µM (inactive) | > 100 µM (inactive) | > 100 µM (inactive) | > 100 µM (inactive) | > 100 µM (inactive) | > 100 µM (inactive) | > 100 µM (inactive) | > 100 µM (inactive) | 59.4 µM (inactive) | > 100 µM (inactive) | > 100 µM (inactive) | 73.3 µM (inactive) | 22.3 | > 100 µM (inactive) | 27.1 µM (inactive) | > 100 µM (inactive) | > 100 µM (inactive) | – | –
CC1(C)Oc2ccccc2[N+]([O-])=C1c1ccccc1 | > 100 µM (inactive) | > 100 µM (inactive) | > 100 µM (inactive) | > 100 µM (inactive) | > 100 µM (inactive) | > 100 µM (inactive) | > 100 µM (inactive) | > 100 µM (inactive) | – | > 100 µM (inactive) | – | > 100 µM (inactive) | > 100 µM (inactive) | > 100 | > 100 µM (inactive) | > 100 µM (inactive) | > 100 µM (inactive) | > 100 µM (inactive) | – | –
O=C(c1ccccc1)n1cc(/C=C/[N+](=O)[O-])c2ccccc21 | 24.7 µM (inactive) | – | 18.5 µM (inactive) | 20.8 µM (inactive) | 20.1 µM (inactive) | > 100 µM (inactive) | 42 µM (inactive) | 13.4 µM (inactive) | – | 27 µM (inactive) | 19.9 µM (inactive) | 85.1 µM (inactive) | 20.5 µM (inactive) | 19.5 | 39.2 µM (inactive) | 19.7 µM (inactive) | 15.1 µM (inactive) | 44.2 µM (inactive) | – | 15.2 µM (inactive)
C=C(CCCCC)CN1CCCC1C(C)=O (configuration not stated) | 17.1 µM (inactive) | 32.4 µM (inactive) | 30.6 µM (inactive) | 41.5 µM (inactive) | 25.4 µM (inactive) | 35 µM (inactive) | 26.8 µM (inactive) | 12.9 µM (inactive) | 22 µM (inactive) | 4.45 µM (inactive) | 26.1 µM (inactive) | 32.9 µM (inactive) | 34.1 µM (inactive) | 31.6 | 29.1 µM (inactive) | 14.9 µM (inactive) | 11.4 µM (inactive) | 29.6 µM (inactive) | – | 18.8 µM (inactive)
COc1ccc(O)cc1 [MEQUINOL] | > 100 µM (inactive) | > 100 µM (inactive) | > 100 µM (inactive) | 53.5 µM (inactive) | 24.8 µM (inactive) | > 100 µM (inactive) | – | 60.3 µM (inactive) | > 100 µM (inactive) | > 100 µM (inactive) | > 100 µM (inactive) | > 100 µM (inactive) | > 100 µM (inactive) | 24.5 | > 100 µM (inactive) | 89.7 µM (inactive) | – | > 100 µM (inactive) | – | 49 µM (inactive)
